Experiments:
[1] = test system: HaCaT cells; assay: VEGF-mediated intracellular ROS formation (DCFH-DA); type: cell-based, human; details: 0.3 to 3 µM
Description: VEGF acts as an inducer in reactive oxygen species (ROS) formation; such an interaction plays an essential role in the activation of VEGFR2-mediated pathways and downstream cell migration.
Figure 7 RE-1 attenuates VEGF-mediated ROS formation in HaCaT cells. (A) HaCaT cells were seeded onto coverslips and mounted with Prolong Gold Antifade Reagent with DAPI. Pictures of cells were captured with confocal microscopy Leica SP8 (Leica, Germany). (B) The intensities of fluorescent signals by DCFH-DA were quantified using the software Leica Application Suite (LAS, 4.12 version) X. Values were calculated as percentage of changes compared with the blank control (only medium), in mean ± SD, n = 4. * p < 0.05; compared with the control group.
Intracellular ROS accumulation was measured with a fluorescent ROS indicator DCFH-DA. Procedures were conducted as described previously. In brief, HaCaT cells were seeded onto coverslips at a density of 1 × 10^5 cells/mL. Following drug treatments, a DCFH-DA probe diluted in serum-free medium at 20 μM was introduced to the cells. The cells were incubated with DCFH-DA for 20 min in a 37 °C incubator. PBS wash was followed to rinse off the residual DCFH-DA. Following this, the cells were fixed with 4% paraformaldehyde (PFA) in PBS for 15 min at room temperature. The PFA was washed off with a PBS wash twice. Coverslips with fixed cells were mounted with Prolong Gold Antifade Reagent with DAPI (Cell Signalling Technology, Boston, MA, USA). Pictures of cells were captured with confocal microscopy Leica SP8 system at 20× magnification (Leica, Wetzlar, Germany). The intensities of fluorescent signals by DCFH-DA were determined through the software Leica Application Suite (LAS) X (Leica Microsystems, Wetzlar, Germany).

[2] = test system: HaCaT cells; assay: MTT cell viability (toxicity) in HaCaT cells; type: cell-based, human; details: concentrations up to 100 µM
[3] = test system: ERK1/2; assay: Western blot, phosphorylation of downstream ERK1/2 in HUVECs; type: cell-based, human; details: in the presence of VEGF
Text: (§1) In light of the investigation above, we further evaluated the anti-VEGF efficacy of RE-1 in cell studies. VEGFR2 was previously identified as the main receptor of VEGF protein. […] ERK1/2, a downstream signal factor, was subsequently stimulated and phosphorylated after the activation of VEGFR2 [17].
(A) Cell treatment was the same as in Figure 3. […] Antibodies in use included: anti-rabbit phospho-p44/42 MAPK, anti-rabbit p44/42 MAPK (CST), and anti-rabbit horseradish peroxidase (HRP) secondary antibody. (B) The intensities of each band were quantified and analyzed with the software Image Lab. Values were calculated as percentage of changes compared with a blank control (only medium), in mean ± SD, n = 4. * p < 0.05; compared with the control group.
(§2) HUVECs were seeded onto 12-well plates at a density of 1.5 × 10^4 cells/mL and subjected to serum starvation with a serum-free medium overnight. After treatment with various samples, the cells were directly lysed with 200 μL 2× sodium dodecyl sulfate polyacrylamide gel electrophoresis (SDS-PAGE) lysis buffer (100 mM Tris-Cl, pH 6.8, 8% SDS, 0.2% bromophenol blue, 20% glycerol, 400 mM β-mercaptoethanol). The lysates were obtained and denatured at 85 °C for 15 min. Afterwards, the samples were subjected to SDS-PAGE in a 10% gel. […] The intensities of each band were quantified and analyzed with software Image Lab.

[4] = test system: VEGF/VEGFR2 complex; assay: Western blot, phosphorylation of VEGF/VEGFR2 in HUVECs; type: cell-based, human; details: VEGF 10 ng/mL
Description: as §1
(A) VEGF was added at a concentration of 10 ng/mL, and avastin at 200 µg/mL was employed as the positive control. (B) The intensities of each band were quantified and analyzed with software Image Lab (6.1 version). Values were calculated as the percentage of changes compared with blank control (only medium), in mean ± SD, n = 4. * p < 0.05; compared with the control group.
as §2, with “gel. Then, 5% skim milk in Tris-buffered saline of pH 7.4 with 0.1% Tween-20 (as TBST) was used for blocking.” for “gel.”

[5] = target: T1, VEGF165 protein (Homo sapiens, UniProt P15692); assay: SPR binding affinity assay (Biacore T200); details: immobilized VEGF165, analytes 1 to 30 µM, estimated, read-out: dissociation constant (Kd)
T1 sequence (P15692 1-191 isoform P15692-4): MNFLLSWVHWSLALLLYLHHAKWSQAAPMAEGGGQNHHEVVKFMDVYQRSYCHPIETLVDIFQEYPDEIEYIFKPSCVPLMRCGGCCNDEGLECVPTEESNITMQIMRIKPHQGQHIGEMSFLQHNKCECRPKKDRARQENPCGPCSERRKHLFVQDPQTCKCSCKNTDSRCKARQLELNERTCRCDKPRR
Description: In parallel, an ultrafiltration assay was conducted in the presence and absence of VEGF protein (Figure 2A). […] Subsequently, SPR investigation was performed using Biacore T200 (Cytiva, Washington, DC, USA) to detect the binding affinities of RE-1 to the targeted protein. […] When the binding activities between analytes and the protein were detected, response units (RUs) could be calculated and obtained accordingly.
Binding affinities between analytes and VEGF protein were determined using a Biacore T200 (Cytiva, Washington, DC, USA) with a GE Series dextran-coated (CM5) sensor chip. Specifically, the HBS-T mixture (150 mM NaCl, 10 mM Hepes, 0.05% polysorbate 20, 3.4 mM EDTA, 5% DMSO, pH 7.4) was selected as the operating buffer at 25 °C. The immobilizing VEGF protein was covalently placed onto the chip at the sensor surface through amide coupling reagent—EDC/NHS {1-ethyl-3-[3-(dimethylamino) propyl]carbodiimide hydrochloride)/N-hydroxysuccinimide}. Following surface activation, the VEGF protein was dissolved using a coupling buffer (0.1 M acetate buffer, pH 4.5) and placed at the surface of the sensor chip, until the RU (resonance unit) signal of the VEGF protein was detected and reached 6500 RU. To remove unreacted VEGF protein, the chip was washed and subsequently reacted with 10 mM glycine-HCl at pH 1.5. […] Data were further analyzed utilizing GE Biacore T200 control software.

[6] = Caco-2 transepithelial permeability assay; type: in vitro ADME; details: human; for Papp at 0.3 µM: Caco-2, sample tested at 0.3 µM; for Papp at 3 µM: Caco-2, sample tested at 3 µM
[7] = Stability test by HPLC (intra- and inter-day variability); type: physicochemical; details: for Intra-day RSD: n = 6; for Intra-day Mean Peak Area: n = 6, HPLC 210 nm; for Inter-day Mean Peak Area / Inter-day RSD: n = 6, five successive days
[8] = test system: HUVECs; assay: Wound closure assay; type: cell-based, human; details: VEGF 10 ng/mL, 0.3 µM to 3 µM, 20 h
Description: (§3) VEGF has been reported as a crucial mediator in human umbilical vein endothelial cells (HUVECs).
Figure 6 RE-1 reduces VEGF-regulated wound recovery in HUVECs. […] (D) Quantification of wound recovery. Values were calculated as percentage of changes compared with the blank control (only medium), in mean ± SD, n = 4. * p < 0.05; ** p < 0.01; compared with the control group.
A wound closure assay was performed on cultured HUVECs to study cell migration in vitro. Procedures were described previously by Guo et al.. Briefly, HUVECs were seeded onto a 12-well plate at a density of 3 × 10^5 cells/well, and treatments were added when the cells grew to full confluence. The cells were washed with PBS and treated with drugs. The photos of each cell scrape at 0 (At0) and 20 h (At20) were captured with a microscope and imaging software (Zen, https://www.zeiss.com/microscopy/en/products/software/zeiss-zen.html, accessed on 19 January 2025) at a 10× magnification. The software TScratch 1.0 (CSE Lab, Zurich, Switzerland) was used to determine the open area of each scrape photo at various timepoints. Quantification of the recovery rate of wound was calculated according to the following equation: Wound closure (%) = (At0 − At20)/[…] × 100%.

[9] = test system: HUVECs; assay: VEGF-induced cell proliferation (MTT); type: cell-based, human; details: VEGF 10 ng/mL, 48 h, 0.1-10 µM
Description: as §3
HUVECs were incubated in the presence of VEGF (10 ng/mL) with or without drug treatments for 48 h. […] The absorbance of the samples at 570 nm was measured using a microplate reader (Thermo Fisher Scientific, Waltham, MA, USA). * p < 0.05; ** p < 0.01; compared with the control group.
First, 5 × 10^4 cells/mL […] cells were seeded on a 96-well plate. After 24 h incubation, 100 μL VEGF at a concentration of 10 ng/mL with various concentrations of analytes were added to the mixture, followed by the addition of 10 μL of MTT solution (5 mg/mL). Th blank group was set up without any drug treatments, while avastin was utilized as a positive control. The mixture was incubated at 37 °C for 4 h before 150 μL DMSO was employed to dissolve formazan salt formed during the reaction. The sample was collected and read under a microplate reader (Thermo Fisher Scientific) at a wavelength of 570 nm. Proliferation values were calculated as follows: cell proliferation (%) = (experimental value − background value)/(blank value − background value) × 100%.

[10] = test system: HUVECs; assay: MTT cell viability (toxicity) in HUVECs; type: cell-based, human; details: cultured HUVECs, concentrations up to 100 µM
[11] = target: T2, VEGF protein (Homo sapiens, UniProt P15692); assay: Ultrafiltration binding assay with HPLC quantification; details: ultrafiltration in presence and absence of VEGF protein
T2 sequence (P15692 1-191 isoform P15692-4): T1 sequence (P15692 1-191 isoform P15692-4)

Row | Compound | inhibition of VEGF-mediated ROS formation [1] | toxicity (apoptosis) in MTT assay [2] | inhibition of ERK1/2 phosphorylation [3] | disruption of phosphorylation of VEGF/VEGFR2 [4] | Kd [5] [µM] | Papp at 0.3 µM [6] [×10⁻⁶ cm/s] | Papp at 3 µM [6] [×10⁻⁶ cm/s] | inhibition of VEGF-regulated wound closure [8] | inhibition of VEGF-regulated cell proliferation [9] | toxicity (apoptosis) in MTT assay [10] | further results
1 | avastin: avastin (bevacizumab), positive control against VEGF | able to reduce such an induction | – | – | – | – | – | – | – | – | – | –
2 | COc1cc(/C=C/c2ccc(OCCCn3c4c(c5cc(Br)ccc53)CCCC4n3cccc3)cc2)cc(OC)c1 (centres unmarked) [RE-1] | better inhibitory performances than resveratrol | no significant apoptosis | found to block ERK1/2 phosphorylation | able to disrupt the phosphorylation and binding activity of VEGF/VEGFR2 complex | ~8 | 15.8 | 20.9 | higher efficacy than resveratrol | significant inhibitory activity | no significant apoptosis | Papp ([6]; Caco-2, concentrations from 0.3 µM to 3 µM): 15.8 to 20.9 ×10⁻⁶ cm/s; Intra-day RSD ([7]; acidic solution): 5.84%; Intra-day Mean Peak Area ([7]; acidic solution): 1316.9; Inter-day Mean Peak Area ([7]; acidic solution): 1403.9; Inter-day RSD ([7]; acidic solution): 8.83%; Intra-day RSD ([7]; basic solution): 5.81%; Intra-day Mean Peak Area ([7]; basic solution): 755.8; Inter-day Mean Peak Area ([7]; basic solution): 747.2; Inter-day RSD ([7]; basic solution): 9.35%; Intra-day RSD ([7]; neutral solution): 4.93%; Intra-day Mean Peak Area ([7]; neutral solution): 1002.8; Inter-day Mean Peak Area ([7]; neutral solution): 1046.6; Inter-day RSD ([7]; neutral solution): 9.21%; binding degree to the protein [11]: ~ 32%
3 | Oc1ccc(/C=C/c2cc(O)cc(O)c2)cc1 [resveratrol] | inhibitory effectiveness | mild apoptosis at relatively high concentrations | found to block ERK1/2 phosphorylation | able to disrupt the phosphorylation and binding activity of VEGF/VEGFR2 complex | ~12 | 15.1 | 18.2 | significant inhibitions to wound closure | decent inhibition | mild apoptosis at relatively high concentrations | –

From article PMC12155980, “Design, Synthesis, and Biological Evaluations of a Novel Resveratrol-Type Analogue Against VEGF” (Molecules, 2025)
